The values below come from PMC3422259, “Additive Mixture Effects of Estrogenic Chemicals in Human Cell-Based Assays Can Be Influenced by Inclusion of Chemicals with Differing Effect Profiles” (PLoS ONE, 2012).

The structures appear in SMILES notation. Entries after “also recorded” stand apart in the source; their conditions may differ. Where two headings read alike, the source gives them in different places. A value given as a limit tells only on which side of the number the result lay.

For one data set, the system named is T47D-KBluc cells. Briefly: cells. The conditions noted are these: ERLUX; for Concentration at which estrogenic activity seen: and above. As to the method: T47D-KBluc cells were obtained from the ATCC and the protocol established by the depositing authors was followed. Cells were routinely grown in RPMI media (with 10% foetal calf serum (FCS)). For seven days prior to experiments, cells were maintained in low estrogen conditions by the use of pre-assay media (RPMI, 10% charcoal-dextran stripped FCS, no antibiotics). For experiments, cells were seeded in white polystyrene 96 well plates at a density of 10,000 cells/well and allowed to attach for 24 hours before removal of media, and application of test chemicals. Test chemicals were dissolved in ethanol to give stock solutions of millimolar concentrations. Test and control solutions were obtained by dilution of ethanolic stocks in dosing media (phenol red-free RPMI, 5% charcoal-dextran stripped FCS, no antibiotics), and in all cases the final concentration of ethanol was 0.5%. The positive control was 1 nM estradiol. Positive and vehicle controls were run as eight replicate wells per plate, and compounds were tested in a dilution series comprising eight concentrations, each concentration tested in triplicate. As recommended by Wilson et al. two additional controls were also included on each plate: 1) vehicle control plus an antiestrogen, ICI 182,780 (1 µM), and 2) positive control plus ICI 182,780 (1 µM). […] A crude measure of toxicity was provided by comparing values for treatments that were not positive, with the value of the vehicle control. […] 24 hours after application of test and control solutions, a volume of Steady-Glo assay reagent (Promega) equal to the volume of culture media was added and plates were incubated for ten minutes, with shaking, to allow for cell lysis. Plates were then loaded into a plate reader (FLUOstar Optima, BMG Labtech) and incubated for a further ten minutes in the dark, followed by measurement of luminescence. To reduce variation, the temperature of the plate reader chamber was maintained at 27°C throughout.
(§1) Experiments were performed on different days meaning that results for different dilution series and different batches of the test chemicals were obtained on different days. Each single chemical was tested in three or more independent experiments. Use of normalisation meant that data from different experiments could be reliably combined and compared, as discussed previously. Data was expressed relative to the positive control, rather than as fold change from the vehicle response, for two reasons.
Effect concentrations (ECx) were defined relative to the effects of the estradiol concentration used as the positive control, for example EC50 is the concentration producing an effect of 50% of the positive control (estradiol, 1 nM (ERLUX) or 25 nM (ESCREEN)).
(§2) Results from regression analysis for each test chemicals were used to predict the CA effect for fixed-ratio mixtures designed on 1) equi-effective concentrations (balanced design), 2) possible human serum levels (non-balanced design). The original mathematical formulation of CA that defines for a mixture composed of n components with concentration c1 of the first component, c2 of the second component, and cn for the n-th component a combination effect X is [drawing 1] (1) Here, ECX1, ECX1 …, ECXn are the concentrations of the individual components that on their own produce the same effect X as the mixture, [15] The quotients cn/ECXn are called toxic units and scale all compounds in the mixture relative to their toxicity. They can be interpreted as the contribution of the compound to the total mixture concentration that is expected to produce the mixture effect X. According to equation 1, a mixture effect for a pre-defined effect level X is described only implicitly.

In data set [1] the test system is MCF-7 cells. Briefly: Estrogenicity assay, mitogenic endpoint (ESCREEN). As to conditions: for Signs of estrogenicity: Active at concentration: ‘Active’ = positive signal clearly distinguishable from assay variability and noise; for Signs of estrogenicity (in words): chemical screened as potential modulator, tested alone; for Signs of toxicity at the highest concentrations (in words): highest concentrations shown in Figure 2, may indicate toxicity. As to the method: The ESCREEN assay was performed using cloned MCF-7 cells (described in [6], gifted from A. Soto, Boston) and the established ESCREEN method was followed using an adapted 96-well format. Cells were cultured in DMEM (5% FCS). For experiments, cells were seeded in clear polystyrene 96 well plates at a density of 2,500 cells/well and allowed to attach for 24 hours before washing with rinse media (phenol red-free DMEM, no supplements). […] Test chemicals were dissolved in ethanol to give stock solutions of millimolar concentrations. Test and control solutions were diluted prior to application in dosing media (phenol red free DMEM, 10% charcoal-dextran stripped FCS). The final concentration of ethanol was 0.5% in test and control wells. […] At all stages, media removal from cells was carried out gently and in a controlled fashion by use of an electronic multichannel pipette set to the lowest speed possible. Controls were run as eight replicate wells per plate and compounds were tested in a dilution series comprising eight concentrations, each concentration tested in two replicate wells per plate. The plate layout was designed to reduce variation due to evaporation and spreading of test chemicals, and had been previously optimised in the laboratory. After application of test solutions, plates were incubated for 120 hours before fixation with 10% trichloroacetic acid and sulforhodamine B (SRB) staining to measure protein and allow the indirect quantification of cell number.
as §1
as §2, with “implicitly. However, if the individual concentrations ci are expressed as relative fractions pi to the total mixture concentration ECxMix, then equation 1 can be re-arranged to [drawing 2] (2) which allows the direct calculation of the mixture concentration that is expected to produce the mixture effect X. To form a prediction curve, equation 2 is iterated through for various effect levels resulting in sets of effects and their associated predicted mixture concentration which are then plotted to produce a graph of the effect prediction.” for “implicitly.”
Both equations 1 and 2 require knowledge of the concentration of each mixture component that on its own produces the effect magnitude under consideration. For this reason, these equations cannot be used for predicting mixture effects that exceed the maximal effect of the least efficacious component, because those effect concentrations cannot be defined.

The test system of data set [2] is MCF-7 cells. In words: Modulation studies (ESCREEN only): effect of potential modulators on the response evoked by a reference mixture of estrogens (REFmix). In kind it is cell-based, human. The conditions noted are these: for Modulation of the REFmix effect (in words) / Concentration at which complete suppression (full inhibition) of REFmix effect was reached: ESCREEN; for Observed modulation: ESCREEN response to REFmix (Mixture 3d, ca. 50% effect), screening, one experiment; for Concentration at which complete suppression (full inhibition) of REFmix effect was reached: individual modulator screening. The text has this:
Modulation studies comprised screening of individual modulators in low power experiments accompanied by parallel testing of an equimolar mixture of all modulators. This combination of low power screening and mixture testing provides the opportunity to assess a high number of chemicals (16 in this case) without a prohibitive amount of experimental effort. In this case the effects of 16 modulators could be evaluated using a total of 19 experimental plates (16 for screening and 3 for mixture testing).
To normalize for small changes in the absolute value of the positive control and the control response to the selected REFmix concentration, the response evoked by the REFmix control on each plate was defined as the 50% effect and all modulator study results are normalized to that value.
A mixture of modulators (MODmix) was also tested and was composed with a fixed ratio of equimolar concentrations, since the activity of each modulator was not known at the time of designing the mixture.
In these modulator studies, we examined 16 single chemicals (listed in Table 7) and an equimolar mixture of all 16 components for their ability to modulate the effects of a reference mixture (REFmix) which contained 14 food additives and contaminants (Table 1, Mixture 3d). […] Single chemicals were tested individually in single experiments (screening) and then a mixture composed using a fixed ratio of equal molarities was subjected to repeated testing.
Figure 5 Results of modulation studies. […] Experimental results are shown as grey circles representing each replicate (duplicate testing within the assay) and obtained in three independent (A) or one (B–Q) experiment (s). Experimental results were normalized by setting the value observed for the REFmix alone, the concentration of which was selected to evoke a […] of ca. 50%, to 0.5. The positive control values (black circles, eight replicates per experimental plate, 25 nM estradiol) are indicated adjacent to the y-axis. […] A black line indicates a LOESS spline fit to the data (A–Q) and a grey line indicates linear regression fit to the data for individual modulators (B–Q). A vertical dotted line is drawn at a mixture concentration of 1.6 µM (A) or at the concentration of each modulator present at that mixture concentration (0.1 uM, B–Q). Visual inspection of the individual modulator results (B–Q) was used to identify possible modulation, i.e. when the experimental data appears to deviate from the linear regression, or when the linear regression is not horizontal, and when the magnitude of the modulation is outside the variation expected in the assay.

The test system of another data set is yeast estrogen screen. Set-up: method as in PMID 19499261. As to conditions: cited from earlier work.

As a reminder, the EC10 is the concentration needed for an effect of 10%. For orientation: EC25 means the concentration at which the effect reaches the 25% level.

`CCOC(=O)c1ccccc1C(=O)OCC` [DEP, Di ethyl phthalate]: in the data set on T47D-KBluc cells, the “Estrogenicity when tested alone (in words)” value was “estrogenic” and the “Concentration at which estrogenic activity seen” value was in the range of 0.1 to 1 µM. Also, in the data set with MCF-7 cells [1] (ESCREEN), the “Signs of toxicity (in words)” value is “None” and the “Signs of estrogenicity: Active at concentration” value (shortened to “Signs of estrogenicity: Active”) is “Active at 10 µM or higher”. Moreover, in the data set on MCF-7 cells [2], the “Modulation of the REFmix effect (in words)” value is recorded as “no indication of negative modulation” and the Observed modulation result is “None”.
As to `c1ccc2c(c1)cc1ccc3cccc4ccc2c1c34` [Benzo [a] pyrene], in the data set on T47D-KBluc cells (concentration producing 10% effect relative to positive control 1 nM estradiol, 24 hours), the EC10 was determined as 0.862 µM. Besides, in the data set with T47D-KBluc cells (concentration producing 25% effect relative to positive control 1 nM estradiol, 24 hours), the EC25 is 2.06 µM. In addition, the “Concentration Response Function θ^∧ max” value with T47D-KBluc cells (estimated maximal model asymptote, effect relative to positive control (1 nM estradiol)) is 0.90. Further, the “Signs of estrogenicity (in words)” value in the data set with MCF-7 cells [1] (ESCREEN) is on record as “None”. Besides, the “Estrogenicity when tested alone (in words)” value in the data set with MCF-7 cells [1] (ESCREEN, listed as BaP) was “not active; also recorded: not when tested alone”. Moreover, in the data set on MCF-7 cells [2], the “Modulation of the REFmix effect (in words)” value is “clear negative modulation”, the Observed modulation result is “Clear negative” and the “Concentration at which complete suppression (full inhibition) of REFmix effect was reached” value is given as at most 1 µM. In addition, the “Concentration at which complete suppression (full inhibition) of REFmix effect was reached” value with MCF-7 cells [2] (listed as BaP) is “around 1 µM”.
In the case of `C[S+](C)[O-]` [DMSO], the “Modulation of the estrogenicity of estradiol or a ternary mixture of estradiol, estrone and estriol (in words)” value (“Modulation of the estrogenicity … (in words)” below) with yeast estrogen screen is “no effect”.
For the compound `CCCCC(CC)COC(=O)c1ccccc1C(=O)OCC(CC)CCCC` (stereo not shown) [DEHP, Di ethyl hexyl phthalate], the “Estrogenicity when tested alone (in words)” value with T47D-KBluc cells is recorded as “no estrogenicity”. Besides, in the data set on MCF-7 cells [1] (ESCREEN), the “Concentration at which estrogenicity occurred when tested alone” value is listed as “greater than 1 µM”, the “Signs of toxicity at the highest concentrations (in words)” value is “decline in response” and the “Signs of estrogenicity: Active” value is “Active at 1 µM or higher”. The “Concentration at which toxicity began” value with MCF-7 cells [1] (ESCREEN, before a full estrogenic response was reached) came out at 5 µM. In the data set with MCF-7 cells [2], the “Modulation of the REFmix effect (in words)” value is on record as “no indication of negative modulation” and the Observed modulation entry is reported as “None”.
As to `Nc1ccc([N+](=O)[O-])cc1[N+](=O)[O-]` [2,4-dinitroaniline], in the data set on yeast estrogen screen, the “Modulation of the estrogenicity … (in words)” value was “negative modulation”.
On to `CCCCOC(=O)c1ccccc1C(=O)OCc1ccccc1` [BBP, Butyl benzyl phthalate], for which, in the data set with T47D-KBluc cells, the “Estrogenicity when tested alone (in words)” value is on record as “estrogenic” and the “Concentration at which estrogenic activity seen” value was 0.1 to 1 µM. Besides, the “Toxicity (in words)” value in the data set with T47D-KBluc cells (crude measure within the assay / dose-response analysis) is reported as “evidence for toxicity”. In the data set with MCF-7 cells [1] (ESCREEN), the “Signs of toxicity at the highest concentrations (in words)” value is reported as “decline in response” and the “Signs of estrogenicity: Active” value is given as “Active at 1 µM or higher”. Moreover, the “Signs of toxicity: Toxic at concentration” value in the data set with MCF-7 cells [1] (ESCREEN, reduction in signal at concentrations above those showing estrogenicity) is “Toxic at 100 µM”. For the same compound, in the data set with MCF-7 cells [2], the “Modulation of the REFmix effect (in words)” value is given as “no indication of negative modulation” and the Observed modulation result is “None”.
On to `C[C@@H]1C[C@@H]([C@H](O)CC2CC(=O)NC(=O)C2)C(=O)[C@@H](C)C1` [cycloheximide, reference compound], for which the “Modulation of the estrogenicity … (in words)” value with yeast estrogen screen is given as “negative modulation”.
For `CCCCOC(=O)c1ccccc1C(=O)OCCCC` [DBP, Di butyl phthalate], the “Estrogenicity when tested alone (in words)” value in the data set with T47D-KBluc cells is “no estrogenicity”. Further, in the data set with MCF-7 cells [1], the “Signs of toxicity (in words)” value was “None”. Also, in the data set on MCF-7 cells [1] (ESCREEN), the “Signs of estrogenicity: Active” value is given as “Active at 10 µM or higher”. Further, in the data set with MCF-7 cells [2], the “Modulation of the REFmix effect (in words)” value is “possible negative modulation” and the Observed modulation result is reported as “Possible negative”.
With `[Cl][Hg][Cl]` [HgCl2, Mercury chloride], the “Signs of estrogenicity (in words)” value with MCF-7 cells [1] (ESCREEN) was “None”. The “Signs of toxicity: Possible toxicity at concentration” value in the data set with MCF-7 cells [1] (ESCREEN, decrease in value for treated wells below vehicle controls, assignment not certain) was “Possible toxicity at 10 µM and greater”. In the data set with MCF-7 cells [2], the “Modulation of the REFmix effect (in words)” value is reported as “no indication of negative modulation” and the Observed modulation result is reported as “None”. Further, the “Modulation of the estrogenicity … (in words)” value in the data set with yeast estrogen screen is reported as “no effect”.
